Measured values: patent publication US10167257B2, “Indole derivatives for use in medicine” (IOmet Pharma Ltd., priority 2014, dated 2019)

Experiments:
[1] = molecular target: T1, TDO (A172 cells) (Homo sapiens, UniProt P48775); assay: TDO cell-based assay (A172), kynurenine production; conditions: A172 human glioblastoma cells, 500 μM L-Trp, 48 h, kynurenine by absorbance at 490 nm
T1 construct: This assay utilised cancer cells which expressed either TDO or IDO; host or cells: A172 human glioblastoma cells
Procedure, shortened: (§1)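 SKOV-3 cells (IDO, induced with 500 ng/ml IFNγ) or A172 glioblastoma cells (TDO) were incubated with compound and 500 μM L-Trp for 48 h at 37 °C in phenol-red-free RPMI with dialysed serum. Supernatant kynurenine was measured with 1% Ehrlich's reagent as absorbance at 490 nm.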

[2] = molecular target: T2, IDO (SKOV-3 cells) (Homo sapiens, UniProt P14902); assay: IDO cell-based assay (SKOV-3, IFNγ-induced), kynurenine production; conditions: SKOV-3 ovary adenocarcinoma cells, IFNγ 500 ng/ml, 500 μM L-Trp, 48 h, kynurenine by absorbance at 490 nm
T2 construct: This assay utilised cancer cells which expressed either TDO or IDO; host or cells: SKOV-3 ovary adenocarcinoma cells, IFNγ-induced
Procedure, shortened: as §1

T2 sequence (P14902 whole entry): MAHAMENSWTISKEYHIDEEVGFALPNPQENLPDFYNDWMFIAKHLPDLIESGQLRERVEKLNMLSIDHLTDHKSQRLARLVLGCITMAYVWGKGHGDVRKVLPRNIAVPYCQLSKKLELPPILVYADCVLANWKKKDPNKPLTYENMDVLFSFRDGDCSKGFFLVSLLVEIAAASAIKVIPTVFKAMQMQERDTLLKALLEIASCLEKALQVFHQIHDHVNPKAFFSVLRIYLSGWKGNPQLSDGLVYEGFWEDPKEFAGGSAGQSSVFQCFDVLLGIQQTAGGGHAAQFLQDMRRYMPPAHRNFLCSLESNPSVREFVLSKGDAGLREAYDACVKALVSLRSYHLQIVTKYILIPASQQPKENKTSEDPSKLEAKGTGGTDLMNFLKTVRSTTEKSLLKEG
T1 sequence (P48775 whole entry): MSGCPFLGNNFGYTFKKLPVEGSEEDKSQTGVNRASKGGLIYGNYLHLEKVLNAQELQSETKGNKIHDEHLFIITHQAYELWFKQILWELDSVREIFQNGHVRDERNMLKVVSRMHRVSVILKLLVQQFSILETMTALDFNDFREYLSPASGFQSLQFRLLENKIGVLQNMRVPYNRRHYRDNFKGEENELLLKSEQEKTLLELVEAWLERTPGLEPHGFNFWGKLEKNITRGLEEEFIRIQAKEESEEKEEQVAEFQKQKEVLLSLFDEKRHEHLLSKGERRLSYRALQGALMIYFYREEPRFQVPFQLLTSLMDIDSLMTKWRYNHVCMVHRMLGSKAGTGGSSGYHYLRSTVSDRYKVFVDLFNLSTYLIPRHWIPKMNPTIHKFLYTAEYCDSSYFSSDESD

TDO cellular assay (A172) pIC50 [1]	IDO cellular assay (SKOV3) pIC50 [2]	Compound
− (− = pIC50 <4.50)	+++ (+++ = pIC50 ≥5.50)	COc1ccc(-c2noc(CNC(=O)c3cc4cc(Cl)ccc4[nH]3)n2)cc1OC [Compound 113]
− (− = pIC50 <4.50)	+++ (+++ = pIC50 ≥5.50)	CCC(NC(=O)c1cc2cc(Cl)ccc2[nH]1)c1ccccc1 (stereo not shown) [Compound 114]
+ (+ = pIC50 4.50-<5.00)	+++ (+++ = pIC50 ≥5.50)	CC(NC(=O)c1cc2cc(Cl)ccc2[nH]1)c1cnn(-c2ccccc2F)c1 (stereo not shown) [Compound 115]
++ (++ = pIC50 5.00-<5.50)	− (− = pIC50 <4.50)	O=C(NC1Cc2ccccc2C1)c1cc2cc(Cl)ccc2[nH]1 [Compound 116]
+ (+ = pIC50 4.50-<5.00)	++ (++ = pIC50 5.00-<5.50)	CCN(Cc1noc(CC(C)C)n1)C(=O)c1cc2cc(Cl)ccc2[nH]1 [Compound 117]
+ (+ = pIC50 4.50-<5.00)	++ (++ = pIC50 5.00-<5.50)	Cc1ccccc1C1CCN(CCNC(=O)c2cc3cc(Cl)ccc3[nH]2)C1 (stereo not shown) [Compound 118]
− (− = pIC50 <4.50)	+ (+ = pIC50 4.50-<5.00)	O=C(NC1CCCCC1O)c1cc2cc(Cl)ccc2[nH]1 (stereo not shown) [Compound 119]
− (− = pIC50 <4.50)	+++ (+++ = pIC50 ≥5.50)	Cc1nccc2c(NC(=O)c3cc4cc(F)ccc4[nH]3)cccc12 [Compound 120]
− (− = pIC50 <4.50)	+++ (+++ = pIC50 ≥5.50)	CC(NC(=O)c1cc2cc(Cl)ccc2[nH]1)c1nc(-c2ccccc2)no1 (stereo not shown) [Compound 121]
− (− = pIC50 <4.50)	++ (++ = pIC50 5.00-<5.50)	CC(CCNS(C)(=O)=O)NC(=O)c1cc2cc(Cl)ccc2[nH]1 (stereo not shown) [Compound 122]
+ (+ = pIC50 4.50-<5.00)	++ (++ = pIC50 5.00-<5.50)	C[C@H](NS(=O)(=O)c1cc2cc(F)ccc2[nH]1)c1ccccc1 [Compound 123]
− (− = pIC50 <4.50)	+++ (+++ = pIC50 ≥5.50)	CC(NC(=O)c1cc2cc(Cl)ccc2[nH]1)c1cnn(-c2ccccc2)c1 (stereo not shown) [Compound 124]
+ (+ = pIC50 4.50-<5.00)	+++ (+++ = pIC50 ≥5.50)	COc1cccc(-n2cc(C(C)NC(=O)c3cc4cc(Cl)ccc4[nH]3)cn2)c1 (stereo not shown) [Compound 125]
− (− = pIC50 <4.50)	+++ (+++ = pIC50 ≥5.50)	CC(C)c1noc(C(C)NC(=O)c2cc3cc(Cl)ccc3[nH]2)n1 (stereo not shown) [Compound 126]
− (− = pIC50 <4.50)	+ (+ = pIC50 4.50-<5.00)	C[C@@H](NS(=O)(=O)c1cc2cc(F)ccc2[nH]1)c1ccccc1 [Compound 127]
+ (+ = pIC50 4.50-<5.00)	+++ (+++ = pIC50 ≥5.50)	O=C(NC1(c2ccccc2)CC1)c1cc2cc(Cl)ccc2[nH]1 [Compound 128]
− (− = pIC50 <4.50)	++ (++ = pIC50 5.00-<5.50)	O=C(NCc1nc(-c2ccccc2)no1)c1cc2cc(Cl)ccc2[nH]1 [Compound 129]
− (− = pIC50 <4.50)	++ (++ = pIC50 5.00-<5.50)	COCCc1noc(C(C)NC(=O)c2cc3cc(Cl)ccc3[nH]2)n1 (stereo not shown) [Compound 130]
− (− = pIC50 <4.50)	+++ (+++ = pIC50 ≥5.50)	COc1ccc(-c2noc(C(C)NC(=O)c3cc4cc(Cl)ccc4[nH]3)n2)cc1OC (stereo not shown) [Compound 131]
+ (+ = pIC50 4.50-<5.00)	+++ (+++ = pIC50 ≥5.50)	O=C(NC1(c2ccccc2)CCC1)c1cc2cc(Cl)ccc2[nH]1 [Compound 132]
